The compounds below were run on HAL-01 (assay: cells). Conditions: Homo sapiens, HAL-01.
Format: functional, cell-based, Homo sapiens
Description: SANGER: Inhibition of human HAL-01 cell growth in a cell viability assay.

Structure (SMILES) | IC50 [µM]
Cn1cnc2c(F)c(Nc3ccc(Br)cc3Cl)c(C(=O)NOCCO)cc21 [SELUMETINIB] | 1.7

The compounds below were run on BE-13 (assay: cells). Conditions: Homo sapiens, BE-13.
Format: functional, cell-based, Homo sapiens
Description: SANGER: Inhibition of human BE-13 cell growth in a cell viability assay.

Structure (SMILES) | IC50 [µM]
Cn1cnc2c(F)c(Nc3ccc(Br)cc3Cl)c(C(=O)NOCCO)cc21 [SELUMETINIB] | > 4

The compounds below were run on NCI-H1299 (assay: cells). Conditions: Homo sapiens, NCI-H1299.
Format: functional, cell-based, Homo sapiens
Description: SANGER: Inhibition of human NCI-H1299 cell growth in a cell viability assay.

Structure (SMILES) | IC50 [µM]
Cn1cnc2c(F)c(Nc3ccc(Br)cc3Cl)c(C(=O)NOCCO)cc21 [SELUMETINIB] | > 4

What follows are compounds tested on L-428 (assay: cells). Conditions: Homo sapiens, L-428.
Format: functional, cell-based, Homo sapiens
Description: SANGER: Inhibition of human L-428 cell growth in a cell viability assay.

Structure (SMILES) | IC50 [µM]
Cn1cnc2c(F)c(Nc3ccc(Br)cc3Cl)c(C(=O)NOCCO)cc21 [SELUMETINIB] | > 4

What follows are compounds tested on A3-KAW (assay: cells). Conditions: Homo sapiens, A3-KAW.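 Also: growth inhibition of human A3-KAW cells, read out with a cell viability assay.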
Format: functional, cell-based, Homo sapiens
Description: SANGER: Inhibition of human A3-KAW cell growth in a cell viability assay.

Structure (SMILES) | IC50 [µM]
Cn1cnc2c(F)c(Nc3ccc(Br)cc3Cl)c(C(=O)NOCCO)cc21 [SELUMETINIB] | 3.91

What follows are compounds tested on A704 (assay: cells). Conditions: Homo sapiens, A704.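 Also: growth inhibition of human A704 cells, read out with a cell viability assay.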
Format: functional, cell-based, Homo sapiens
Description: SANGER: Inhibition of human A704 cell growth in a cell viability assay.

Structure (SMILES) | IC50 [µM]
Cn1cnc2c(F)c(Nc3ccc(Br)cc3Cl)c(C(=O)NOCCO)cc21 [SELUMETINIB] | > 4

What follows are compounds tested on BB30-HNC (assay: cells). Conditions: Homo sapiens, BB30-HNC.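 Also: growth inhibition of the cultured cell line, read out by a cell viability assay.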
Format: functional, cell-based, Homo sapiens
Description: SANGER: Inhibition of human BB30-HNC cell growth in a cell viability assay.

Structure (SMILES) | IC50 [µM]
Cn1cnc2c(F)c(Nc3ccc(Br)cc3Cl)c(C(=O)NOCCO)cc21 [SELUMETINIB] | 2.71

What follows are compounds tested on COLO-824 (assay: cells). Conditions: Homo sapiens, COLO-824.
Format: functional, cell-based, Homo sapiens
Description: SANGER: Inhibition of human COLO-824 cell growth in a cell viability assay.

Structure (SMILES) | IC50 [µM]
Cn1cnc2c(F)c(Nc3ccc(Br)cc3Cl)c(C(=O)NOCCO)cc21 [SELUMETINIB] | > 4

These compounds were tested on NCI-H1650 (assay: cells). Conditions: Homo sapiens, NCI-H1650.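 Also: growth inhibition of human NCI-H1650 cells measured by a cell viability assay.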
Format: functional, cell-based, Homo sapiens
Description: SANGER: Inhibition of human NCI-H1650 cell growth in a cell viability assay.

Structure (SMILES) | IC50 [µM]
Cn1cnc2c(F)c(Nc3ccc(Br)cc3Cl)c(C(=O)NOCCO)cc21 [SELUMETINIB] | > 4

The compounds below were run on GCIY (assay: cells). Conditions: Homo sapiens, GCIY.
Format: functional, cell-based, Homo sapiens
Description: SANGER: Inhibition of human GCIY cell growth in a cell viability assay.

Structure (SMILES) | IC50 [µM]
Cn1cnc2c(F)c(Nc3ccc(Br)cc3Cl)c(C(=O)NOCCO)cc21 [SELUMETINIB] | > 4

What follows are compounds tested on IA-LM (assay: cells). Conditions: Homo sapiens, IA-LM.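 Also: cell viability assay measuring growth inhibition of human IA-LM cells.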
Format: functional, cell-based, Homo sapiens
Description: SANGER: Inhibition of human IA-LM cell growth in a cell viability assay.

Structure (SMILES) | IC50 [µM]
Cn1cnc2c(F)c(Nc3ccc(Br)cc3Cl)c(C(=O)NOCCO)cc21 [SELUMETINIB] | > 4

These compounds were tested on NCI-H82 (assay: cells). Conditions: Homo sapiens, NCI-H82.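 Also: growth inhibition of NCI-H82 cells, measured with a cell viability readout.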
Format: functional, cell-based, Homo sapiens
Description: SANGER: Inhibition of human NCI-H82 cell growth in a cell viability assay.

Structure (SMILES) | IC50 [µM]
Cn1cnc2c(F)c(Nc3ccc(Br)cc3Cl)c(C(=O)NOCCO)cc21 [SELUMETINIB] | > 4

These compounds were tested on LS-1034 (assay: cells). Conditions: Homo sapiens, LS-1034.
Format: functional, cell-based, Homo sapiens
Description: SANGER: Inhibition of human LS-1034 cell growth in a cell viability assay.

Structure (SMILES) | IC50 [µM]
Cn1cnc2c(F)c(Nc3ccc(Br)cc3Cl)c(C(=O)NOCCO)cc21 [SELUMETINIB] | > 4

What follows are compounds tested on TE-11 (assay: cells). Conditions: Homo sapiens, TE-11.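 Also: growth inhibition of human TE-11 cells, read out by a cell viability assay.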
Format: functional, cell-based, Homo sapiens
Description: SANGER: Inhibition of human TE-11 cell growth in a cell viability assay.

Structure (SMILES) | IC50 [µM]
Cn1cnc2c(F)c(Nc3ccc(Br)cc3Cl)c(C(=O)NOCCO)cc21 [SELUMETINIB] | > 4

Each compound was assayed on OCUB-M (assay: cells). Conditions: Homo sapiens, OCUB-M.
Format: functional, cell-based, Homo sapiens
Description: SANGER: Inhibition of human OCUB-M cell growth in a cell viability assay.

Structure (SMILES) | IC50 [µM]
Cn1cnc2c(F)c(Nc3ccc(Br)cc3Cl)c(C(=O)NOCCO)cc21 [SELUMETINIB] | > 4

The compounds below were run on GR-ST (assay: cells). Conditions: Homo sapiens, GR-ST.
Format: functional, cell-based, Homo sapiens
Description: SANGER: Inhibition of human GR-ST cell growth in a cell viability assay.

Structure (SMILES) | IC50 [µM]
Cn1cnc2c(F)c(Nc3ccc(Br)cc3Cl)c(C(=O)NOCCO)cc21 [SELUMETINIB] | > 4

Each compound was assayed on BB65-RCC (assay: cells). Conditions: Homo sapiens, BB65-RCC.
Format: functional, cell-based, Homo sapiens
Description: SANGER: Inhibition of human BB65-RCC cell growth in a cell viability assay.

Structure (SMILES) | IC50 [µM]
Cn1cnc2c(F)c(Nc3ccc(Br)cc3Cl)c(C(=O)NOCCO)cc21 [SELUMETINIB] | 1.84

The compounds below were run on NCI-H1395 (assay: cells). Conditions: Homo sapiens, NCI-H1395.
Format: functional, cell-based, Homo sapiens
Description: SANGER: Inhibition of human NCI-H1395 cell growth in a cell viability assay.

Structure (SMILES) | IC50 [µM]
Cn1cnc2c(F)c(Nc3ccc(Br)cc3Cl)c(C(=O)NOCCO)cc21 [SELUMETINIB] | > 4

Each compound was assayed on L-363 (assay: cells). Conditions: Homo sapiens, L-363.
Format: functional, cell-based, Homo sapiens
Description: SANGER: Inhibition of human L-363 cell growth in a cell viability assay.

Structure (SMILES) | IC50 [µM]
Cn1cnc2c(F)c(Nc3ccc(Br)cc3Cl)c(C(=O)NOCCO)cc21 [SELUMETINIB] | > 4

These compounds were tested on MPP-89 (assay: cells). Conditions: Homo sapiens, MPP-89.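 Also: growth inhibition of human MPP-89 cells, read out with a cell viability assay.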
Format: functional, cell-based, Homo sapiens
Description: SANGER: Inhibition of human MPP-89 cell growth in a cell viability assay.

Structure (SMILES) | IC50 [µM]
Cn1cnc2c(F)c(Nc3ccc(Br)cc3Cl)c(C(=O)NOCCO)cc21 [SELUMETINIB] | > 4

Each compound was assayed on GOTO (assay: cells). Conditions: Homo sapiens, GOTO.
Format: functional, cell-based, Homo sapiens
Description: SANGER: Inhibition of human GOTO cell growth in a cell viability assay.

Structure (SMILES) | IC50 [µM]
Cn1cnc2c(F)c(Nc3ccc(Br)cc3Cl)c(C(=O)NOCCO)cc21 [SELUMETINIB] | > 4

These compounds were tested on TE-5 (assay: cells). Conditions: Homo sapiens, TE-5.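 Also: inhibition of cell growth, read out by a cell viability assay.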
Format: functional, cell-based, Homo sapiens
Description: SANGER: Inhibition of human TE-5 cell growth in a cell viability assay.

Structure (SMILES) | IC50 [µM]
Cn1cnc2c(F)c(Nc3ccc(Br)cc3Cl)c(C(=O)NOCCO)cc21 [SELUMETINIB] | > 4

These compounds were tested on SW 962 (assay: cells). Conditions: Homo sapiens, SW 962.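 Also: growth inhibition of human SW962 cells, read out by a cell viability assay.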
Format: functional, cell-based, Homo sapiens
Description: SANGER: Inhibition of human SW962 cell growth in a cell viability assay.

Structure (SMILES) | IC50 [µM]
Cn1cnc2c(F)c(Nc3ccc(Br)cc3Cl)c(C(=O)NOCCO)cc21 [SELUMETINIB] | > 4

The compounds below were run on NOMO-1 (assay: cells). Conditions: Homo sapiens, NOMO-1.
Format: functional, cell-based, Homo sapiens
Description: SANGER: Inhibition of human NOMO-1 cell growth in a cell viability assay.

Structure (SMILES) | IC50 [µM]
Cn1cnc2c(F)c(Nc3ccc(Br)cc3Cl)c(C(=O)NOCCO)cc21 [SELUMETINIB] | 0.032

Each compound was assayed on SK-MEL-1 (assay: cells). Conditions: Homo sapiens, SK-MEL-1.
Format: functional, cell-based, Homo sapiens
Description: SANGER: Inhibition of human SK-MEL-1 cell growth in a cell viability assay.

Structure (SMILES) | IC50 [µM]
Cn1cnc2c(F)c(Nc3ccc(Br)cc3Cl)c(C(=O)NOCCO)cc21 [SELUMETINIB] | > 4

What follows are compounds tested on 8-MG-BA (assay: cells). Conditions: Homo sapiens, 8-MG-BA.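 Also: growth inhibition of 8-MG-BA cells, read out with a cell viability assay.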
Format: functional, cell-based, Homo sapiens
Description: SANGER: Inhibition of human 8-MG-BA cell growth in a cell viability assay.

Structure (SMILES) | IC50 [µM]
Cn1cnc2c(F)c(Nc3ccc(Br)cc3Cl)c(C(=O)NOCCO)cc21 [SELUMETINIB] | > 4

What follows are compounds tested on NCI-H747 (assay: cells). Conditions: Homo sapiens, NCI-H747.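 Also: growth inhibition of human NCI-H747 cells, read out by a cell viability assay.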
Format: functional, cell-based, Homo sapiens
Description: SANGER: Inhibition of human NCI-H747 cell growth in a cell viability assay.

Structure (SMILES) | IC50 [µM]
Cn1cnc2c(F)c(Nc3ccc(Br)cc3Cl)c(C(=O)NOCCO)cc21 [SELUMETINIB] | 0.351

Each compound was assayed on A101D (assay: cells). Conditions: Homo sapiens, A101D.
Format: functional, cell-based, Homo sapiens
Description: SANGER: Inhibition of human A101D cell growth in a cell viability assay.

Structure (SMILES) | IC50 [µM]
Cn1cnc2c(F)c(Nc3ccc(Br)cc3Cl)c(C(=O)NOCCO)cc21 [SELUMETINIB] | 0.24

The compounds below were run on SK-N-FI (assay: cells). Conditions: Homo sapiens, SK-N-FI.
Format: functional, cell-based, Homo sapiens
Description: SANGER: Inhibition of human SK-N-FI cell growth in a cell viability assay.

Structure (SMILES) | IC50 [µM]
Cn1cnc2c(F)c(Nc3ccc(Br)cc3Cl)c(C(=O)NOCCO)cc21 [SELUMETINIB] | > 4

What follows are compounds tested on MSTO-211H (assay: cells). Conditions: Homo sapiens, MSTO-211H.
Format: functional, cell-based, Homo sapiens
Description: SANGER: Inhibition of human MSTO-211H cell growth in a cell viability assay.

Structure (SMILES) | IC50 [µM]
Cn1cnc2c(F)c(Nc3ccc(Br)cc3Cl)c(C(=O)NOCCO)cc21 [SELUMETINIB] | > 4

The compounds below were run on NB12 (assay: cells). Conditions: Homo sapiens, NB12.
Format: functional, cell-based, Homo sapiens
Description: SANGER: Inhibition of human NB12 cell growth in a cell viability assay.

Structure (SMILES) | IC50 [µM]
Cn1cnc2c(F)c(Nc3ccc(Br)cc3Cl)c(C(=O)NOCCO)cc21 [SELUMETINIB] | > 4

Each compound was assayed on KP-N-YS (assay: cells). Conditions: Homo sapiens, KP-N-YS.
Format: functional, cell-based, Homo sapiens
Description: SANGER: Inhibition of human KP-N-YS cell growth in a cell viability assay.

Structure (SMILES) | IC50 [µM]
Cn1cnc2c(F)c(Nc3ccc(Br)cc3Cl)c(C(=O)NOCCO)cc21 [SELUMETINIB] | > 4

What follows are compounds tested on J-RT3-T3-5 (assay: cells). Conditions: Homo sapiens, J-RT3-T3-5.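 Also: cell viability assay measuring growth inhibition of human J-RT3-T3-5 cells.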
Format: functional, cell-based, Homo sapiens
Description: SANGER: Inhibition of human J-RT3-T3-5 cell growth in a cell viability assay.

Structure (SMILES) | IC50 [µM]
Cn1cnc2c(F)c(Nc3ccc(Br)cc3Cl)c(C(=O)NOCCO)cc21 [SELUMETINIB] | > 4

What follows are compounds tested on D283 Med (assay: cells). Conditions: Homo sapiens, D283 Med.
Format: functional, cell-based, Homo sapiens
Description: SANGER: Inhibition of human D-283MED cell growth in a cell viability assay.

Structure (SMILES) | IC50 [µM]
Cn1cnc2c(F)c(Nc3ccc(Br)cc3Cl)c(C(=O)NOCCO)cc21 [SELUMETINIB] | > 4

The compounds below were run on TGW (assay: cells). Conditions: Homo sapiens, TGW.
Format: functional, cell-based, Homo sapiens
Description: SANGER: Inhibition of human TGW cell growth in a cell viability assay.

Structure (SMILES) | IC50 [µM]
Cn1cnc2c(F)c(Nc3ccc(Br)cc3Cl)c(C(=O)NOCCO)cc21 [SELUMETINIB] | > 4

What follows are compounds tested on IST-MEL1 (assay: cells). Conditions: Homo sapiens, IST-MEL1.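 Also: growth inhibition of the cell line, read out with a cell viability assay.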
Format: functional, cell-based, Homo sapiens
Description: SANGER: Inhibition of human IST-MEL1 cell growth in a cell viability assay.

Structure (SMILES) | IC50 [µM]
Cn1cnc2c(F)c(Nc3ccc(Br)cc3Cl)c(C(=O)NOCCO)cc21 [SELUMETINIB] | > 4

Each compound was assayed on MOLT-16 (assay: cells). Conditions: Homo sapiens, MOLT-16.
Format: functional, cell-based, Homo sapiens
Description: SANGER: Inhibition of human MOLT-16 cell growth in a cell viability assay.

Structure (SMILES) | IC50 [µM]
Cn1cnc2c(F)c(Nc3ccc(Br)cc3Cl)c(C(=O)NOCCO)cc21 [SELUMETINIB] | > 4

These compounds were tested on NB6 (assay: cells). Conditions: Homo sapiens, NB6.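 Also: growth inhibition of NB6 cells, read out by a cell viability assay.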
Format: functional, cell-based, Homo sapiens
Description: SANGER: Inhibition of human NB6 cell growth in a cell viability assay.

Structure (SMILES) | IC50 [µM]
Cn1cnc2c(F)c(Nc3ccc(Br)cc3Cl)c(C(=O)NOCCO)cc21 [SELUMETINIB] | > 4

The compounds below were run on ES6 (assay: cells). Conditions: Homo sapiens, ES6.
Format: functional, cell-based, Homo sapiens
Description: SANGER: Inhibition of human ES6 cell growth in a cell viability assay.

Structure (SMILES) | IC50 [µM]
Cn1cnc2c(F)c(Nc3ccc(Br)cc3Cl)c(C(=O)NOCCO)cc21 [SELUMETINIB] | > 4

The compounds below were run on HCC2157 (assay: cells). Conditions: Homo sapiens, HCC2157.
Format: functional, cell-based, Homo sapiens
Description: SANGER: Inhibition of human HCC2157 cell growth in a cell viability assay.

Structure (SMILES) | IC50 [µM]
Cn1cnc2c(F)c(Nc3ccc(Br)cc3Cl)c(C(=O)NOCCO)cc21 [SELUMETINIB] | > 4

What follows are compounds tested on ES4 (assay: cells). Conditions: Homo sapiens, ES4.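 Also: growth inhibition of human ES4 cells, read out by a cell viability assay.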
Format: functional, cell-based, Homo sapiens
Description: SANGER: Inhibition of human ES4 cell growth in a cell viability assay.

Structure (SMILES) | IC50 [µM]
Cn1cnc2c(F)c(Nc3ccc(Br)cc3Cl)c(C(=O)NOCCO)cc21 [SELUMETINIB] | > 4

The compounds below were run on CGTH-W-1 (assay: cells). Conditions: Homo sapiens, CGTH-W-1.
Format: functional, cell-based, Homo sapiens
Description: SANGER: Inhibition of human CGTH-W-1 cell growth in a cell viability assay.

Structure (SMILES) | IC50 [µM]
Cn1cnc2c(F)c(Nc3ccc(Br)cc3Cl)c(C(=O)NOCCO)cc21 [SELUMETINIB] | > 4

These compounds were tested on NCI-H720 (assay: cells). Conditions: Homo sapiens, NCI-H720.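 Also: growth inhibition of human NCI-H720 cells determined by a cell viability assay.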
Format: functional, cell-based, Homo sapiens
Description: SANGER: Inhibition of human NCI-H720 cell growth in a cell viability assay.

Structure (SMILES) | IC50 [µM]
Cn1cnc2c(F)c(Nc3ccc(Br)cc3Cl)c(C(=O)NOCCO)cc21 [SELUMETINIB] | > 4

These compounds were tested on SF-268 (assay: cells). Conditions: Homo sapiens, SF-268.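 Also: growth inhibition of SF-268 cells determined with a cell viability assay.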
Format: functional, cell-based, Homo sapiens
Description: SANGER: Inhibition of human SF268 cell growth in a cell viability assay.

Structure (SMILES) | IC50 [µM]
Cn1cnc2c(F)c(Nc3ccc(Br)cc3Cl)c(C(=O)NOCCO)cc21 [SELUMETINIB] | > 4

What follows are compounds tested on OVCAR-4 (assay: cells). Conditions: Homo sapiens, OVCAR-4.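 Also: growth inhibition of human OVCAR-4 cells, measured with a cell viability assay.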
Format: functional, cell-based, Homo sapiens
Description: SANGER: Inhibition of human OVCAR-4 cell growth in a cell viability assay.

Structure (SMILES) | IC50 [µM]
Cn1cnc2c(F)c(Nc3ccc(Br)cc3Cl)c(C(=O)NOCCO)cc21 [SELUMETINIB] | > 4

These compounds were tested on NEC8 (assay: cells). Conditions: Homo sapiens, NEC8.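 Also: growth inhibition of human NEC8 cells, read out by a cell viability assay.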
Format: functional, cell-based, Homo sapiens
Description: SANGER: Inhibition of human NEC8 cell growth in a cell viability assay.

Structure (SMILES) | IC50 [µM]
Cn1cnc2c(F)c(Nc3ccc(Br)cc3Cl)c(C(=O)NOCCO)cc21 [SELUMETINIB] | > 4

Source: ChEMBL document CHEMBL1201861, “Genomics of Drug Sensitity in Cancer screening data, Wellcome Trust Sanger Institute”
